Test results as given in the Deep4Chem optical property database.
Several values for one entry are separate records, joined by “and”; a condition that tells them apart may be missing. Equal values may be shown once.

Test: solvent given as SMILES

## CC1=[N+]2C(=Cc3c4c(cn3[B-]2(F)F)-c2nc-4c(-c3ccccc3)c3ccc([nH]3)c(-c3ccccc3)c3nc(c(-c4ccccc4)c4ccc([nH]4)c2-c2ccccc2)C=C3)C(C)C1 (stereo not drawn)
In ClCCl
  absorption maximum: 640 nm

## CCOC(=O)c1c2c3c(ccc([N+](=O)[O-])c3c3cc4ccccc4cc13)N(C)C2=O
In CC#N
  absorption maximum: 394 nm

## O=P1(c2ccccc2)C(c2cc(C(F)(F)F)cc(C(F)(F)F)c2)=Cc2c3ccc4cccc5ccc(c6cc(-c7ccc(N(c8ccccc8)c8ccccc8)cc7)n1c26)c3c45 (stereo not drawn)
In C1CCCCC1
  absorption maximum: 434 nm
In C1CCOC1
  absorption maximum: 437 nm
In C1COCCO1
  absorption maximum: 436 nm
In CC#N
  absorption maximum: 434 nm
In CC(C)=O
  absorption maximum: 435 nm
In CO
  absorption maximum: 444 nm
In Cc1ccccc1
  absorption maximum: 441 nm
In ClC(Cl)Cl
  absorption maximum: 441 nm
In ClCCl
  absorption maximum: 437 nm

## CCc1s[c+](N2CCCCC2)sc1-c1cc(C)cc(I)c1[O-]
In C1CCOC1
  absorption maximum: 409 nm
In CC#N
  absorption maximum: 405 nm
In CO
  absorption maximum: 360 nm
In ClCCl
  absorption maximum: 406 nm

## FC(F)(F)C(F)(F)C(F)(F)C1=NC2=C(c3ccc4ccc5cccc6ccc3c4c56)C=C3c4cc(-c5ccc6ccc7cccc8ccc5c6c78)c5nc(C(F)(F)C(F)(F)C(F)(F)F)nc6c(-c7ccc8ccc9cccc%10ccc7c8c9%10)cc(c4c56)=C4C=C(c5ccc6ccc7cccc8ccc5c6c78)C(=N1)C2C34 (stereo not drawn)
In C1CCOC1
  absorption maximum: 524 nm
In Cc1ccccc1
  absorption maximum: 560 nm

## CCOC(=O)CCCCCn1c2ccc(C)cc2c(=O)c2cc3c(cc21)c(=O)c1cc(C)ccc1n3CCCCCC(=O)OCC
In CO
  absorption maximum: 540 nm

## CCCCCCn1c2cc(C=C(C#N)C#N)sc2c2sc3c(sc4c5sc(C=C(C#N)C#N)cc5n(CCCCCC)c43)c21
In ClCCl
  absorption maximum: 588 nm

## Cc1cc2nc3c(=O)[nH]c(=O)n(C)c3nc2cc1C
In CC#N
  absorption maximum: 379 nm

## CCCC1(CCC)c2cc(-c3ccc(-c4ccc(OC)cc4)o3)ccc2-c2ccc(-c3ccc(-c4ccc(OC)cc4)o3)cc21
In C1CCCCC1
  absorption maximum: 410 nm

## CCN(CC)c1ccc2cc(-c3cn4ccccc4n3)c(=O)oc2c1
In C1CCOC1
  absorption maximum: 408 nm
In CC#N
  absorption maximum: 421 nm
In CCO
  absorption maximum: 424 nm
In CCOC(C)=O
  absorption maximum: 407 nm
In CN(C)C=O
  absorption maximum: 425 nm
In CO
  absorption maximum: 423 nm
In CS(C)=O
  absorption maximum: 428 nm
In Cc1ccccc1
  absorption maximum: 407 nm
In ClC(Cl)Cl
  absorption maximum: 425 nm
In ClCCl
  absorption maximum: 429 nm

## CC1=C2C=CC(C)=[N+]2[B-](F)(F)n2cccc21
In CCCCCC
  absorption maximum: 499 nm
In CO
  absorption maximum: 494 nm
In ClCCl
  absorption maximum: 498 nm

## CCCCC(CC)CN1C(=O)c2cccc3c(C#Cc4ccc(N(c5ccccc5)c5ccc(C#Cc6ccc7c8c(cccc68)C(=O)N(CC(CC)CCCC)C7=O)cc5)cc4)ccc(c23)C1=O (stereo not drawn)
In C1CCCCC1
  absorption maximum: 453 nm
In C1CCOC1
  absorption maximum: 451 nm
In CC#N
  absorption maximum: 456 nm
In Cc1ccccc1
  absorption maximum: 452 nm
In ClC(Cl)Cl
  absorption maximum: 466 nm

## Cc1ccc(/C=C/c2nc(-c3cccc([N+](=O)[O-])c3)[nH]c2/C=C/c2ccc(C)cc2)cc1
In ClCCl
  absorption maximum: 370 nm

## CC(C)(C)c1ccc(C#Cc2cc3c(C#Cc4ccc(C(C)(C)C)cc4)c(C#Cc4ccc(C(C)(C)C)cc4)c4cc(C#Cc5ccc(C(C)(C)C)cc5)cc5c(C#Cc6ccc(C(C)(C)C)cc6)c(C#Cc6ccc(C(C)(C)C)cc6)c(c2)c3c45)cc1
In ClCCl
  absorption maximum: 414 nm

## CN(C)c1ccc(C2=Nc3sc4cc(C(F)(F)F)ccc4[n+]3[B-](F)(F)O2)cc1
In C1CCOC1
  absorption maximum: 430 nm
In CC#N
  absorption maximum: 427 nm
In CC(C)=O
  absorption maximum: 431 nm
In Cc1ccccc1
  absorption maximum: 428 nm
In ClCCl
  absorption maximum: 431 nm

## COc1cc2c(cc1-c1ccncc1)Cc1c3c(c4c(c1-2)-c1cc(OC)c(-c2ccncc2)cc1C4)C(=O)N(CCC(C)C)C3=O
In C1CCOC1
  absorption maximum: 407 nm

## CN(C)c1ccc(/C=C/C(=C(C#N)C#N)c2ccc3c4c(cccc24)CC3)cc1
In C1CCOC1
  absorption maximum: 488 nm
In CC#N
  absorption maximum: 494 nm
In CC(C)=O
  absorption maximum: 492 nm
In CCOC(C)=O
  absorption maximum: 497 nm
In CN(C)C=O
  absorption maximum: 505 nm
In CO
  absorption maximum: 496 nm
In Cc1ccccc1
  absorption maximum: 487 nm
In ClC(Cl)Cl
  absorption maximum: 483 nm

## CC(C)(C)c1ccc(-c2cc(-c3ccc(-c4cc(-c5ccc(C(C)(C)C)cc5)c(C(=O)N5CCOCC5)s4)s3)sc2C(=O)N2CCOCC2)cc1
In ClCCl
  absorption maximum: 377 nm

## CC(C)(C)c1ccc(-c2ccc(-c3c4c(nc5ccccc35)-c3cc5c(cc3CC4)-c3nc4ccccc4c(-c4ccc(-c6ccc(C(C)(C)C)cc6)cc4)c3CC5)cc2)cc1
In ClC(Cl)Cl
  absorption maximum: 376 nm

## [O-][n+]1c(-c2ccc(Br)cc2)cc(N2CCOCC2)nc1/C=C/c1ccccc1
In ClCCl
  absorption maximum: 445 nm

## N#Cc1ccc(/C=C2\N=C(c3ccccc3)OC2=O)cc1
In C1COCCO1
  absorption maximum: 369 nm

## CC1(C)C(/C=C/C=C/C=C/C=C2\N(CCCCS(=O)(=O)[O-])c3ccc4ccccc4c3C2(C)C)=[N+](CCCCS(=O)(=O)[O-])c2ccc3ccccc3c21
In O
  absorption maximum: 780 nm

## Cc1ccc2c(c1)c(C#N)c(C#N)c1cc(C)ccc12
In ClC(Cl)Cl
  absorption maximum: 343 nm

## CCN(CC)c1ccc2c(C)cc(=O)oc2c1
In C1CCCCC1
  absorption maximum: 350 nm
In CC#N
  absorption maximum: 367 nm
In CCCCCCCCO
  absorption maximum: 373 nm
In CCCCCCO
  absorption maximum: 373 nm
In CCCCO
  absorption maximum: 374 nm
In CCCO
  absorption maximum: 376 nm
In CCO
  absorption maximum: 376 nm and 435 nm and 373 nm
In CCOC(C)=O
  absorption maximum: 361 nm
In OCC(O)CO
  absorption maximum: 384 nm

## CCC1=C(C)C2=C(c3c4ccccc4c(-c4ccccc4)c4ccccc34)c3c(C)c(CC)c(C)n3[B-](F)(F)[N+]2=C1C
In CC#N
  absorption maximum: 528 nm
In CCCCCC
  absorption maximum: 531 nm
In CCO
  absorption maximum: 529 nm
In CN(C)C=O
  absorption maximum: 530 nm
In Cc1ccccc1
  absorption maximum: 534 nm
In ClCCl
  absorption maximum: 532 nm

## Cc1ccccc1/C(C#N)=C/c1ccc(N(C)C)cc1
In C1CCOC1
  absorption maximum: 376 nm
In C1COCCO1
  absorption maximum: 376 nm
In CC#N
  absorption maximum: 377 nm
In CCCCCC
  absorption maximum: 364 nm
In CCCCCCC
  absorption maximum: 376 nm
In CCCCCO
  absorption maximum: 376 nm
In CCCCO
  absorption maximum: 376 nm
In CCCO
  absorption maximum: 374 nm
In CCO
  absorption maximum: 376 nm
In CCOC(C)=O
  absorption maximum: 373 nm
In CN(C)C=O
  absorption maximum: 382 nm
In CO
  absorption maximum: 374 nm
In CS(C)=O
  absorption maximum: 385 nm
In Cc1ccccc1
  absorption maximum: 366 nm
In ClC(Cl)Cl
  absorption maximum: 378 nm

## O=c1c2cc(F)c(N3CCOCC3)cc2sc2cc(N3CCOCC3)c(F)cc12
In CCO
  absorption maximum: 361 nm

## Oc1cc(-c2ccco2)ccc1-c1nc2ccccc2s1
In ClCCl
  absorption maximum: 361 nm
In O
  absorption maximum: 354 nm

## CCCCCCOc1ccc(/C=C/c2ccc(N(c3ccc(/C=C/c4ccc(OCCCCCC)cc4)cc3)c3ccc(-c4nc5ccccc5nc4-c4ccc(N(c5ccc(/C=C/c6ccc(OCCCCCC)cc6)cc5)c5ccc(/C=C/c6ccc(OCCCCCC)cc6)cc5)cc4)cc3)cc2)cc1
In C1CCOC1
  absorption maximum: 378 nm
In Cc1ccccc1
  absorption maximum: 374 nm

## CCOC(=O)c1cc(C)n2nc(-c3ccccc3)ccc12
In C1CCCCC1
  absorption maximum: 390 nm

## CCCCN1C(=O)c2cccc3c(OC)ccc(c23)C1=O
In CC#N
  absorption maximum: 376 nm
In CS(C)=O
  absorption maximum: 484 nm
In Cc1ccccc1
  absorption maximum: 362 nm

## CCCCNc1nn(-c2ccc(OC)cc2)nc1C#N
In CC#N
  absorption maximum: 328 nm

## Cc1ccc(C2=[N+]3C(=Nc4c5ccccc5c(-c5ccc(C)s5)n4[B-]3(F)F)c3ccccc32)s1
In ClCCl
  absorption maximum: 793 nm

## COc1ccccc1C1=C2C=CC(=[N+](C)C)C=C2[Si](C)(C)c2cc(N(C)C)ccc21
In O
  absorption maximum: 649 nm
